Experiments:
Set-up in all cases: purchased Milipore (Millipore)
[1] = molecular target: T1, Human adrenergic α2A receptor (Homo sapiens, UniProt P08913); assay: Radioligand binding, adrenergic α2A (Protocol Group B); settings: Protocol Group B; for Percentage inhibition of ligand binding, Adrenergic α2A (0.1 μM) / inhibition at 0.1 µM: 0.1 μM compound; for inhibition at 0.3 µM / Percentage inhibition of ligand binding, Adrenergic α2A (0.3 μM): 0.3 μM compound; for inhibition at 0.3 µM: read-out: Percentage inhibition of ligand binding, Adrenergic α2A (0.3 μM); for inhibition at 0.1 µM: read-out: Percentage inhibition of ligand binding, Adrenergic α2A (0.1 μM)
T1 sequence (P08913 1-465): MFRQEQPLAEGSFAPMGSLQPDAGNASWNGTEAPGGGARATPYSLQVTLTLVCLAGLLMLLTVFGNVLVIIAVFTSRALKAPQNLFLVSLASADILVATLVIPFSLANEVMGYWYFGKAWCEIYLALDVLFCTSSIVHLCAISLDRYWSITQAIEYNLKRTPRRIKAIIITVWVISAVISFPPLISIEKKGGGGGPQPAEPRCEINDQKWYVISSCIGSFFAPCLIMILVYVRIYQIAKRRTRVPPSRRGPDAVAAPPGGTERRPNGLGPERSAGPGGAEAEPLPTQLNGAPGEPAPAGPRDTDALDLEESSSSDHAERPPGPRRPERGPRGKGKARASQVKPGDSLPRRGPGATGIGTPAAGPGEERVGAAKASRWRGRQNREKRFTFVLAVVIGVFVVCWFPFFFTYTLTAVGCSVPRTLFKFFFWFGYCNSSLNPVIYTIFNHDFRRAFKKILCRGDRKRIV
Method in brief: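 Membranes from recombinant cells expressing the receptor, in 50 mM Tris-HCl pH 7.4 with 5 mM MgCl2, 1 mM CaCl2, 0.2% BSA; compounds incubated with 2 nM [^3H]MK-912 for 60 min at 25° C. Nonspecific binding defined by 10 μM rauwolscine; filtration, counting; percent inhibition of specific binding, or estimated Ki.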

[2] = molecular target: T2, Human adrenergic α2B receptor (Homo sapiens, UniProt P18089); assay: Radioligand binding, adrenergic α2B (Protocol Group B); settings: Protocol Group B; for Percentage inhibition of ligand binding, Adrenergic α2B (10 nM) / inhibition at 0.01 µM: 10 nM compound; for Percentage inhibition of ligand binding, Adrenergic α2B (10 nM): 0.01 µM; for inhibition at 0.03 µM / Percentage inhibition of ligand binding, Adrenergic α2B (30 nM): 30 nM compound; for inhibition at 0.03 µM: read-out: Percentage inhibition of ligand binding, Adrenergic α2B (30 nM); for inhibition at 0.1 µM / Percentage inhibition of ligand binding, Adrenergic α2B (0.1 μM): 0.1 μM compound; for inhibition at 0.1 µM: read-out: Percentage inhibition of ligand binding, Adrenergic α2B (0.1 μM); for Percentage inhibition of ligand binding, Adrenergic α2B (30 nM): 0.03 µM; for inhibition at 0.01 µM: read-out: Percentage inhibition of ligand binding, Adrenergic α2B (10 nM)
T2 sequence (P18089 1-450): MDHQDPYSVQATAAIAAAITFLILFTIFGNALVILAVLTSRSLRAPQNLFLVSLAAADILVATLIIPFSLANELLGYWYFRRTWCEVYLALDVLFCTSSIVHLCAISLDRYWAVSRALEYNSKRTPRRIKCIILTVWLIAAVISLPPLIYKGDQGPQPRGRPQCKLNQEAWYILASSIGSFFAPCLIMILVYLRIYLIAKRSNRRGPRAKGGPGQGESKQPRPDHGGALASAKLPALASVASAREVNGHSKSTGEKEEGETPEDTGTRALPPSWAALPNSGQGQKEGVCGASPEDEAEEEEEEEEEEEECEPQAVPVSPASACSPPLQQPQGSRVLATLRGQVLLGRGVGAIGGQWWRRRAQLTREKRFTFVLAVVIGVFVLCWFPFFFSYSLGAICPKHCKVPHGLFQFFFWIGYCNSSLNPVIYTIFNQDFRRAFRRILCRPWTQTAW
Method in brief: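 Recombinant human α2B receptor membranes incubated with compounds in 50 mM Tris-HCl pH 7.4, 5 mM MgCl2, 1 mM CaCl2, 0.2% BSA, 1% DMSO vehicle. Non-specific binding defined with 10 μM rauwolscine. Values are percent inhibition of specific binding or estimated Ki.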

[3] = molecular target: T3, Human adrenergic α1B receptor (Homo sapiens, UniProt P35368); assay: Radioligand binding, adrenergic α1B (Protocol Group B); settings: Protocol Group B; for Percentage inhibition of ligand binding, Adrenergic α1B (0.1 μM) / inhibition at 0.1 µM: 0.1 μM compound; for Percentage inhibition of ligand binding, Adrenergic α1B (0.3 μM) / inhibition at 0.3 µM: 0.3 μM compound; for inhibition at 0.1 µM: read-out: Percentage inhibition of ligand binding, Adrenergic α1B (0.1 μM); for inhibition at 0.3 µM: read-out: Percentage inhibition of ligand binding, Adrenergic α1B (0.3 μM)
T3 sequence (P35368 1-520): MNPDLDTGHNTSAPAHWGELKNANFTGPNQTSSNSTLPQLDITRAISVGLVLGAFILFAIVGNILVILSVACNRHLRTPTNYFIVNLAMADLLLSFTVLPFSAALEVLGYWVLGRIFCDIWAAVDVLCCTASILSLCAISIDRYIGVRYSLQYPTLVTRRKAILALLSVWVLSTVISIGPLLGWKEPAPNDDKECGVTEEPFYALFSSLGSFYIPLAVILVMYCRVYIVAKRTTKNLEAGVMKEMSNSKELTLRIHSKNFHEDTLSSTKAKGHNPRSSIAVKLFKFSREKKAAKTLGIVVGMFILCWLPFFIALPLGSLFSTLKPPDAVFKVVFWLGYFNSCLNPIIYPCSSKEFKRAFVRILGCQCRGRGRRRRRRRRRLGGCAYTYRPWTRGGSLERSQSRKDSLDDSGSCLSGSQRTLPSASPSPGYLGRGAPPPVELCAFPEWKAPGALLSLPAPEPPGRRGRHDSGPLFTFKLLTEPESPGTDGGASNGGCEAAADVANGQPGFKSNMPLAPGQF
Method in brief: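 Recombinant human α1B membranes incubated with test compound and 0.3 nM [3H]prazosin, 60 min at 25 °C, in 50 mM Tris-HCl pH 7.4, 10 mM MgCl2, 1 mM EDTA; nonspecific binding with 10 μM prazosin. Filter-bound radioactivity counted; values are % inhibition of specific binding or estimated Ki.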

| SMILES | Percentage inhibition of ligand binding, Adrenergic α2A (0.1 μM) [1] | inhibition at 0.3 µM [1] | Percentage inhibition of ligand binding, Adrenergic α2B (10 nM) [2] | inhibition at 0.03 µM [2] | inhibition at 0.1 µM [2] | Percentage inhibition of ligand binding, Adrenergic α1B (0.1 μM) [3] | Percentage inhibition of ligand binding, Adrenergic α1B (0.3 μM) [3] | Percentage inhibition of ligand binding, Adrenergic α2A (0.3 μM) [1] | Percentage inhibition of ligand binding, Adrenergic α2B (30 nM) [2] | Percentage inhibition of ligand binding, Adrenergic α2B (0.1 μM) [2] | inhibition at 0.1 µM [3] | inhibition at 0.3 µM [3] | inhibition at 0.1 µM [1] | inhibition at 0.01 µM [2] |
| --- | --- | --- | --- | --- | --- | --- | --- | --- | --- | --- | --- | --- | --- | --- |
| Cc1ccc2c(c1)c1c(n2CC(C)(O)c2ccncc2)CCN2CCCC12 (single isomer, unassigned) [13c] | 11% | 21% | −1% | 30% | 74% | 9% | 28% |  |  |  |  |  |  |  |
| Cc1cc(C)c2c(c1)c1c(n2CC(C)(O)c2cccnc2)CCN2CCCC12 (single isomer, unassigned) [44d] | −17% |  | −17% |  |  | −5% | 0% | −16% | −11% |  |  |  |  |  |
| Cc1ccc2c(c1)c1c(n2CC(C)(O)c2cccnc2)CC(CO)N(C)C1 (single isomer, unassigned) [15a] | 14% |  | 19% |  |  |  |  | 14% | 48% | 68% | 17% | 25% |  |  |
| Cc1ccc2c(c1)c1c(n2CC(OCC2CCC2)c2ccncc2)CCN(C)C1 (stereo not shown) [59b] |  | 65% |  | 97% | 99% |  |  |  |  |  | 28% | 62% | 39% | 84% |
| Cc1ccc2c(c1)c1c(n2CC(C)(O)c2cccnc2)CC2CCCN2C1 (stereo not shown) [41b] | −16% |  | −14% |  |  | −11% | −4% | −5% | −14% | −2% |  |  |  |  |
| Cc1ccc2c(c1)c1c(n2CC(C)(O)c2cccnc2)CCN(CC(F)F)C1 (stereo not shown) [compound 58, 1-(2-(2,2-difluoroethyl)-8-methyl-3,4-dihydro-1H-pyrido[4,3-b]indol-5(2H)-yl)-2-(pyridin-3-yl)propan-2-ol] |  | -1% |  | -4% | -2% |  |  |  |  |  | -6% | -4% | -6% | -10% |
| Cc1ccc2c(c1)c1c(n2CC(C)(O)c2ccc(N(C)C)nc2)CCN(C)C1 (single isomer, unassigned) [39a] | 12% |  | 15% |  |  | 15% | 36% | 26% | 38% | 62% |  |  |  |  |
| Cc1cc(F)cc2c3c(n(CC(C)(O)c4cccnc4)c12)CC1CCCN1C3 (single isomer, unassigned) [76b] | 5% |  | 11% |  |  | 4% | 3% | 0% | 5% | 20% |  |  |  |  |
| Cc1ccc2c(c1)c1c(n2CC(O)c2ccccn2)CC2CCCN2C1 (single isomer, unassigned) [45d] | −7% |  | −10% |  |  | 4% | 18% | −2% | 0% | 34% |  |  |  |  |
| Cc1ccc2c(c1)c1c(n2CC(C)(O)c2ccc(OCC3CC3)nc2)CCN(C)C1 (stereo not shown) [compound 56, 2-(6-(cyclopropylmethoxy)pyridin-3-yl)-1-(2,8-dimethyl-3,4-dihydro-1H-pyrido[4,3-b]indol-5(2H)-yl)propan-2-ol] |  | 9% |  | 48% | 74% |  |  |  |  |  | 12% | 38% | 1% | 17% |
| Cc1ccc2c(c1)c1c(n2CC(O)c2ccccn2)CC2CCCN2C1 (single isomer, unassigned) [45c] | 0% |  | 11% |  |  | −5% | 3% | −11% | 4% | 19% |  |  |  |  |
| Cc1cc(Cl)c2c(c1)c1c(n2CC(O)c2ccncc2)CCN2CCCC12 (single isomer, unassigned) [142a] | 52% |  |  | 92% |  | 46% |  |  |  |  |  |  |  |  |
